Key:
E. coli strain MC1061 [1] = assay: Complementation of T4 denA mutant phage by bleomycin: progeny phage production; type: cell-based
Protocol: (§1) In this example, a T4 denA mutant phage is complemented with an antibiotic known to cause single strand breaks in DNA, bleomycin. In this example, the production of any viable progeny phage above the background will be evidence of complementation. E. coli strain MC1061, growing at 32∞ C in Luria Broth plus 0.2% glucose was treated for 60 minutes with 10 μg/ml of bleomycin, which was then removed by centrifuging the cells and re-suspending them in an equal volume of the same media. Under these treatment conditions, cell viability is reduced to about 40-50% of that at the beginning of the treatment. The cells are then allowed to grow for various amounts of time at 32∞ C. in the absence of bleomycin, at which times HU is added to 200 mM.
Phage mutant in both the denA and denB genes is added five minutes later. Unadsorbed input phage are eliminated by treating the infected cultures with anti-T4 sera added 15-20 minutes after infection. This anti-T4 sera treatment to eliminate unadsorbed input phage allows detection of a lower level of progeny phage production. However, the anti-T4 sera must be removed or it will also inactivate progeny phage. This was done by centrifuging the infected cultures 50 minutes after infection, washing the pellets with one-tenth volume of media, centrifuging again, re-suspending the culture in one volume of media and immediately causing lysis of the productive cells by the addition of chloroform.
Progeny phage production was assayed by standard methods. A control infection was also done on cells given no bleomycin treatment.

E. coli strain MC1061 [2] = assay: Cell viability after bleomycin treatment; type: cell-based; conditions: 10 μg/ml bleomycin, 60 minutes, 32 C, Luria Broth plus 0.2% glucose
Protocol: as §1

## bleomycin
E. coli strain MC1061 [1]; outgrowth 0 minutes
  factor increase of progeny titre over control (no Bleomycin): 1300
E. coli strain MC1061 [1]; outgrowth 20 minutes
  factor increase of progeny titre over control (no Bleomycin): 13000
E. coli strain MC1061 [1]; outgrowth 40 minutes
  factor increase of progeny titre over control (no Bleomycin): 24000
E. coli strain MC1061 [1]; outgrowth 60 minutes
  factor increase of progeny titre over control (no Bleomycin): 45000
E. coli strain MC1061 [2]
  cell viability, relative to that at the beginning of the treatment: 40-50%
